{
  "source": "patent US20260297081A1",
  "about": "“COMPOUNDS AND METHODS OF TREATING CANCERS” (Cullgen Inc., priority 2023, published 2026)",
  "type_in_all_cases": "cell-based",
  "key": {"Calu-1 cells": {"test_system": "Calu-1 cells", "test": "Anti-proliferation (viability) of NSCLC Calu-1 cells, 3 days (Table 7, FIG. 2B)", "conditions": "Homo sapiens, 72 h; Calu-1 cells, 3 days, 10-point serial dilution; read-out: GI IC50 in Calu-1", "how_it_was_run": "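Cells were exposed to heterobifunctional compounds across a 10-point serial dilution, for 3 days with Calu-1 and 6 days with T47D. A negative control was included that keeps the DDB1 ligand and linker but carries a modified warhead that impairs CDK4 binding.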"}, "T47D parental cells": {"test_system": "T47D parental cells", "test": "CellTiter-Lumi cell viability assay, T47D parental cells, 6 days (FIG. 4)", "conditions": "Homo sapiens, 144 h", "protocol": "Furthermore, we developed one ER^+ breast cancer T47D model with acquired resistance after long period of treatment with 1 μM palbociclib (over IC90). Cells were deemed resistant when growing in the presence of palbo at the same rate as parental cells. Palbo resistance was determined by CellTiter-Lumi cell viability assay (FIG. 4, IC50>10,000 nM)."}, "[1]": {"test_system": "CCND1, CCND3, and CDK4 in MCF7 cells", "test": "Immunoblot of CCND1, CCND3 and CDK4 protein levels in MCF7 cells under serum starvation (FIG. 1B, 24 hours)", "conditions": "MCF7, reduction of CCND1, CCND3, and CDK4 protein levels, serum starvation, 24 hours", "protocol": "Specific exemplary heterobifunctional compounds were characterized in Calu-1, MCF7, T47D and other cells. Cells that express cyclin D1-3 and CDK4/6 proteins were treated with heterobifunctional compounds disclosed herein at indicated concentrations. MCF7 cells were deprived of serum for 2 hours followed by the treatment with heterobifunctional compounds. Cells were collected, lysed and subject to immunoblotting using an antibody specific to CCND1, CCND2, CCND3, CDK4, or FoxM1, cyclin A2, or phosphorylated Rb (S807/811) proteins. Tubulin or GAPDH was used as the loading control. DMSO treatment was used as the negative control."}, "T47D cells [2]": {"test_system": "T47D cells", "test": "Annexin V apoptosis flow cytometry, T47D (FIG. 3A)", "conditions": "6 days", "protocol": "(§1) T47D cells were treated with DMSO, palbociclib, heterobifunctional compound CPD-10 for 6 days at doses approximating IC50 and IC90 concentrations as indicated (FIG. 3A). HCC1428 cells were treated with DMSO, palbociclib, heterobifunctional compound CPD-10, or its negative control compound CPD-143 for 6 days at doses approximating IC90 concentrations as indicated (FIG. 3B). Cells were harvested by trypsinization, staining was carried out using the Annexin V Apoptosis Detection Kit.\nAssays were performed on the CytoFLEX Cytometer (Beckman Coulter), and data were analyzed using CytExpert software. For cell death and apoptosis analysis, cells were harvested by trypsinization, staining was carried out using the Annexin V Apoptosis Detection Kit (BD Biosciences). Briefly, cells were resuspended in 1× binding buffer and incubated with fluorochrome-conjugated Annexin V and 7-AAD for 15 min in darkness at room temperature."}, "HCC1428 cells": {"test_system": "HCC1428 cells", "test": "Flow cytometric analysis of Annexin V/7-AAD stained HCC1428 cells (apoptosis), 6 days (FIG. 3B)", "conditions": "HCC1428, dose approximating IC90, 6 days", "protocol": "as §1, with “IC50and” for “IC50 and”, “Kit. The percentages of early apoptotic (Annexin V^+7-AAD^−, lower right quadrant), late apoptotic (Annexin V^+7-AAD^+, upper right quadrant) and necrotic cells (Annexin V^−7-AAD^+, upper left quadrant) are indicated on dot plots.” for “Kit.”"}, "[3]": {"test_system": "T47D palbo-resistant cells", "test": "Cell viability in T47D palbociclib-resistant model (FIG. 4)", "conditions": "10-point serial dilution, 6 days", "protocol": "T47D cells were cultured long-term to resistance in the presence of 1 μM Palbociclib. Palbo resistance was determined by CellTiter-Lumi cell viability assay. T47D parental or palbo-resistant cells were treated with palbociclib, or heterobifunctional compounds CPD-10 or CPD-39 following a 10-point serial dilution for 6 days.\n(§2) Calu-1, T47D, MCF7, HCC1428 and other cells were cultured at 37° C. with 5% CO2 in RPMI 1640 or DMEM medium supplemented with 10% fetal bovine serum. Cells were authenticated using the short tandem repeat (STR) assays. Mycoplasma test results were negative. For palbo-resistant cell model, T47D cells were cultured long-term to resistance in the presence of 1 μM Palbociclib. Cells were deemed resistant when growing in the presence of Palbo at the same rate as parental cells.\nCells were seeded at a density of 2,000-5,000 cells per well in 96-well assay plates and treated with test compounds following a 10-point serial dilution for 3-6 days. Cell viability was determined using the CellTiter-Lumi assay kit according to the manufacturer's instructions. The dose-response curves were determined and IC50 values were calculated using the GraphPad Prism software following a nonlinear regression (least squares fit) method. Data presented was mean±standard deviation (SD)unless otherwise indicated."}, "T47D cells [4]": {"test_system": "T47D cells", "test": "Flow cytometric analysis of Annexin V/7-AAD stained T47D cells (apoptosis), 6 days (FIG. 3A)", "protocol": "as §1, with “IC50and” for “IC50 and”, “Kit. The percentages of early apoptotic (Annexin V^+7-AAD^−, lower right quadrant), late apoptotic (Annexin V^+7-AAD^+, upper right quadrant) and necrotic cells (Annexin V^−7-AAD^+, upper left quadrant) are indicated on dot plots.” for “Kit.”"}, "CCND3": {"test_system": "CCND3", "test": "Immunoblotting of CCND3 protein level in Calu-1 and MCF7 cells (FIG. 1A-1B)", "protocol": "Calu-1 cells were treated with heterobifunctional compound CPD-10, or CDK4/6 inhibitor palbociclib at indicated concentrations for 4 hours (FIG. 1A). MCF7 cells were deprived of serum for 2 hours followed by treatment with CPD-10, or palbociclib at indicated concentrations for 24 hours (FIG. 1B).\nAntibody and Reagent Anti-cyclin D1 (29785), anti-cyclin D2 (3741S), anti-cyclin D3 (2936S), anti-CDK4 (127905), anti-CDK6 (3136S), anti-phospho-Rb (8516S), anti-FoxM1 (54365), anti-cyclinA2(4656S), anti-vinculin antibody (187995) antibodies were purchased from Cell Signaling Technology. HRP-conjugated anti-α-tubulin antibody and anti-α-GAPDH antibody were purchased from GNI. Media, and other cell culture reagents were purchased from Thermo Fisher Scientific. CellTiter-Glo Luminescent Assay kit was purchased from Promega.\nas §2\nCultured cells were washed with cold PBS once and lysed in cold RIPA buffer supplemented with protease inhibitors and phosphatase inhibitors (Beyotime Biotechnology). The solutions were then incubated at 4 ? for 30 min with gentle agitation to fully lysed cells. Cell lysates were centrifuged at 13,000 rpm for 10 min at 4 ? and pellets were discarded. Total protein concentrations in the lysates were determined following BCA assays (Beyotime Biotechnology). Cell lysates were mixed with Laemmli loading buffer and heated at 99° C. for 5 min. Proteins were resolved on SDS-PAGE and visualized using Western ECL Substrate kits on a ChemiDoc MP Imaging system (Bio-Rad). Protein bands were quantitated using the Image Lab software provided by Bio-Rad."}},
  "note": "pIC50: −log10 of the molar value.",
  "data": [
    {"molecule": "CNc1ccc(C(=O)Nc2ccc(N(C)C)nn2)c(NCCCCCCCNC(=O)CN2CCN(c3ccc(Nc4ncc5c(C)c(C(C)=O)c(=O)n(C6CCCC6)c5n4)nc3)CC2)n1", "note": "[CPD-10, 2-((7-(2-(4-(6-((6-acetyl-8-cyclopentyl-5-methyl-7-oxo-7,8-dihydropyrido[2,3-d]pyrimidin-2-yl)amino)pyridin-3-yl)piperazin-1-yl)acetamido)heptyl)amino)-N-(6-(dimethylamino)pyridazin-3-yl)-6-(methylamino)nicotinamide]", "values": [
      {"measurement": "pIC50", "setting": "Calu-1 cells", "value": "≥ 8.00"},
      {"measurement": "pIC50", "setting": "T47D parental cells", "value": 7.71},
      {"measurement": "DC50", "setting": "[1]", "value": "< 20", "unit": "nM"},
      {"measurement": "Annexin V+ population", "setting": "T47D cells [2]; 15 nM", "value": 20.9, "unit": "%"},
      {"measurement": "Annexin V+ population", "setting": "T47D cells [2]; 200 nM", "value": 62.2, "unit": "%"},
      {"measurement": "Annexin V+ population", "setting": "HCC1428 cells", "value": 55.8, "unit": "%"},
      {"measurement": "cell viability in palbociclib-resistant model", "setting": "[3]", "value": "remained effective in T47D palbo-resistant model"},
      {"measurement": "Annexin V+ population", "setting": "T47D cells [4]; 15 nM", "value": 20.9, "unit": "%"},
      {"measurement": "Annexin V+ population", "setting": "T47D cells [4]; 200 nM", "value": 62.2, "unit": "%"},
      {"measurement": "CCND3 protein level", "setting": "CCND3; Calu-1 cells, 4 hours", "value": "reduced CCND1, CCND3, and CDK4 protein levels in a concentration-dependent manner in both cell lines"},
      {"measurement": "CCND3 protein level", "setting": "CCND3; MCF7 cells, serum deprived 2 hours, treated 24 hours", "value": "reduced CCND1, CCND3, and CDK4 protein levels in a concentration-dependent manner in both cell lines"}
    ]}
  ]
}
